Experiment [1] concerns the target T1, ROS1 (Homo sapiens, UniProt P08922).
T1 construct: purchased Carna Biosciences 08-163
Briefly: ROS1 autophosphorylation inhibitory activity evaluation (ADP-Glo). Format: biochemical. The note with it: 200 nM inactive ROS1, ATP 1 mM, 25° C. 1.5 hours, ADP generated, four separate measurements. How it is done:
Fifty mM HEPES (pH 7.5), 10 mM MgCl2, 0.01% Brij-58, and 2.5 mM DTT were mixed to prepare an enzymatic reaction solution. […] ATP (final concentration: 1 mM) was further added thereto at a concentration of 2.5 μL/well. The resulting plate was left standing at 25° C. for 1.5 hours to cause enzymatic reaction. After the completion of enzymatic reaction, ADP-Glo Reagent-1 (Promega, V9103) was added thereto at a concentration of 2.5 μL/well, and the plate was left standing at room temperature for 60 minutes. Then, ADP-Glo Reagent-2 (Promega) was added thereto at a concentration of 5 μL/well, and the plate was left standing at room temperature for 60 minutes. The amount of ADP generated by the autophosphorylation of ROS1 was measured using EnVision (PerkinElmer Japan). The amount of ADP generated in four separate measurements was defined as the autophosphorylation intensity of ROS1. IC50 values were calculated by curve fitting using GraphPad Prism version 4 (GraphPad software).
(In ADP-Glo the light output rises with the ADP produced.)

In experiment [2] the target is T1, ROS1. Kind of experiment: ROS1 kinase inhibitory activity evaluation (mobility shift, EZ Reader II). Format: biochemical. The note with it: ROS1 25 pg/μL, FL-Peptide 22 substrate, three separate measurements. Here is the method: Next, a substrate reaction solution was prepared. […] Then, the reaction stop solution was added thereto at a concentration of 40 μL/well. Substrate phosphorylation intensity was measured using EZ Reader II (Caliper Life Sciences).

The test system of experiment [3] is HCC78 cells having ROS1 fusion gene. Kind of experiment: HCC78 cell growth assay (CellTiter-Glo). It counts as cell-based. Particulars: Homo sapiens, 72 hours culture, 2% FBS medium, luminescence, four separate measurements, read-out: growth inhibitory effect on HCC78 cells having ROS1 fusion gene IC50. How it is done: Each compound of the present invention was assayed for its cell growth inhibitory effect using HCC78 cells having ROS1 fusion gene.
The suspension was dispensed at a concentration of 100 μL/well to a 96-well culture plate for cell culture (SUMITOMO BAKELITE, Cat No MS-0096S) (hereinafter, referred to as an assay plate). […] In this context, the final concentration of DMSO was set to 0.4%. Then, the cells were cultured for 72 hours in a CO2 incubator.
CellTiter-Glo Luminescent Cell Viability Assay reagent (Promega, Cat No G7571) was dispensed at a concentration of 100 μL/well to the assay plate. The contents in each well were reacted at room temperature for 10 minutes while stirred using a plate mixer. […] The luminescence intensity of each well was measured using EnVision. The luminescence intensity of each well obtained in four separate measurements was defined as the number of cells. IC50 values were calculated by curve fitting using GraphPad Prism version 4.

Where a name gives a salt, the structure may show the parent alone. Read-outs that look alike come from different tables or passages of the source. A value given as a limit tells only on which side of the number the result lay.

The text below walks through data of patent publication US9751887B2, “Imidazo[1,2-b]pyridazine derivatives as kinase inhibitors” (Daiichi Sankyo Company, Limited, priority 2012, dated 2017).

The term IC50 denotes the concentration that gives 50% inhibition.

T1 sequence (P08922 28-2347): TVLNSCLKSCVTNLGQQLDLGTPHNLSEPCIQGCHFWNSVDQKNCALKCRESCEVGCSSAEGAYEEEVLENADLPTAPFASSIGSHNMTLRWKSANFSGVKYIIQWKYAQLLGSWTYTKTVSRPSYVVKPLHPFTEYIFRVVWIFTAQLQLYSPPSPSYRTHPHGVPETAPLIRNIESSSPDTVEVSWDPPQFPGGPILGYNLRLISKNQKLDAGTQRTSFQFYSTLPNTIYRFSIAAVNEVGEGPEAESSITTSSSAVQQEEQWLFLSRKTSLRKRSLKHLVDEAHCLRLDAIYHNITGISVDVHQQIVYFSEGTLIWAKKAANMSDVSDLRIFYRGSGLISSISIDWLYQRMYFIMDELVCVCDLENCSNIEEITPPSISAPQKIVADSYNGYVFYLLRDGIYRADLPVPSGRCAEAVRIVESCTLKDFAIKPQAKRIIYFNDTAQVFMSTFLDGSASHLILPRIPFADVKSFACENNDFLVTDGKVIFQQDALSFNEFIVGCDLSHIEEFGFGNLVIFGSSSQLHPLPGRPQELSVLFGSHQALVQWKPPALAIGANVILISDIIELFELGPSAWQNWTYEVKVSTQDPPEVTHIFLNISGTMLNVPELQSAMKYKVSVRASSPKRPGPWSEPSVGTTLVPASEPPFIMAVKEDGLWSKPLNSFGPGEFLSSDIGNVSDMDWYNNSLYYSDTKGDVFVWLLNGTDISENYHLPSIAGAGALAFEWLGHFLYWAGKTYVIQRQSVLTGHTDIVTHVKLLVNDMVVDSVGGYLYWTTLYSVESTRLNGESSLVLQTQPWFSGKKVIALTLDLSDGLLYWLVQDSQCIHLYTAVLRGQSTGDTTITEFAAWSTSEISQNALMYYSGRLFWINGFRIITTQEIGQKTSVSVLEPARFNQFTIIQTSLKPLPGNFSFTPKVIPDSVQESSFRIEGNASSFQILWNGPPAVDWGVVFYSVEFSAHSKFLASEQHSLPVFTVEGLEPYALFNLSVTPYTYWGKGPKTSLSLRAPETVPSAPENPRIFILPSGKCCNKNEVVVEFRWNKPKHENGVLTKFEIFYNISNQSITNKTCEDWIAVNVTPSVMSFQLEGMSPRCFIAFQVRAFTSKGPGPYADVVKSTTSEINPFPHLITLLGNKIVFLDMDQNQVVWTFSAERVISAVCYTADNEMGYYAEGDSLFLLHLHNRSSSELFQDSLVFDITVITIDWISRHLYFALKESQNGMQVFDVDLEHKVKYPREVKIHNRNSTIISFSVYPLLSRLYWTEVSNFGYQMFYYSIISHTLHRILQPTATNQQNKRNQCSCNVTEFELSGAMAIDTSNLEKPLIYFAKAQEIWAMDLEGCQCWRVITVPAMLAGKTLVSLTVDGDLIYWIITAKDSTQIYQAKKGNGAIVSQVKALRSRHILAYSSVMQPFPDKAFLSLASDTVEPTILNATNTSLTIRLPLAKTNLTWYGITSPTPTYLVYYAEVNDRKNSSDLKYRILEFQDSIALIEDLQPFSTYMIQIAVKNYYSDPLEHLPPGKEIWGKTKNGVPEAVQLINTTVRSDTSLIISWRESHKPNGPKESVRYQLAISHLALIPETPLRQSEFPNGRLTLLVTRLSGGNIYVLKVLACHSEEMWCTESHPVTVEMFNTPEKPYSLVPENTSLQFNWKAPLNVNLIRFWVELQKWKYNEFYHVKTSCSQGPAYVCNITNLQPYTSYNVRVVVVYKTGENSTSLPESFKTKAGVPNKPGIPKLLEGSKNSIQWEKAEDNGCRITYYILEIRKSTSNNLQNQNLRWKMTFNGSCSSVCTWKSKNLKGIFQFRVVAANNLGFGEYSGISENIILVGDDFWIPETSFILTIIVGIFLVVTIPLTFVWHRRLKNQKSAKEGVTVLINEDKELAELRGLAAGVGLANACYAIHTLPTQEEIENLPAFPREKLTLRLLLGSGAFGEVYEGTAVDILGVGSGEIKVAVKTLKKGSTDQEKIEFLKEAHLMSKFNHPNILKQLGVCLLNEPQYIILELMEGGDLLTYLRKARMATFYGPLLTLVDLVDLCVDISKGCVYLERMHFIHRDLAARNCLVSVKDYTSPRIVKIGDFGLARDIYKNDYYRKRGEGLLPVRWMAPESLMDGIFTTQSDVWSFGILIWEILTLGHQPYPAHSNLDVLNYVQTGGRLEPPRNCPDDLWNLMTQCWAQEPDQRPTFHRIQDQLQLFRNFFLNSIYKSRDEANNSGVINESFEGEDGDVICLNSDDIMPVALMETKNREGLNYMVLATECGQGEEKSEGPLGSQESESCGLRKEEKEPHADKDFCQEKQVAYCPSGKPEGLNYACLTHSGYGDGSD

On to `C[C@@H](Nc1ccc2ncc(-c3ccc(OC4CCCC4N)cc3)n2n1)c1cccc(F)c1` (single isomer, unassigned) [Example 32], for which the IC50 is below 20 nM at ROS1 [1] and below 1 nM on ROS1 [2].
`CN(Cc1cccc(F)c1)c1ccc2ncc(-c3ccc(N4CC(C)(N)CC4=O)cc3)n2n1` (single isomer, unassigned) [Example 86, 4-Amino-1-[4-[6-[(3-fluorophenyl)methyl-methylamino]imidazo[1,2-b]pyridazin-3-yl]phenyl]-4-methylpyrrolidin-2-one]: at ROS1 [1], the IC50 is below 20 nM.
With `CN(Cc1cccc(F)c1)c1ccc2ncc(-c3ccc(N4CC(C)(N)CC4=O)cc3)n2n1` (single isomer, unassigned) [Example 87, 4-Amino-1-[4-[6-[(3-fluorophenyl)methyl-methylamino]imidazo[1,2-b]pyridazin-3-yl]phenyl]-4-methylpyrrolidin-2-one], the IC50 against ROS1 [1] lay within 20 to 100 nM; in experiment [3] (HCC78, 72 h), 20 to 100 nM; at ROS1 [2], 1 to 10 nM.
`CN(Cc1cncc(F)c1)c1ccc2ncc(-c3ccc(N4CC(C)(N)CC4=O)cc3)n2n1` (single isomer, unassigned) [Example 124, 4-Amino-1-[4-[6-[(5-fluoro-3-pyridyl)methyl-methylamino]imidazo[1,2-b]pyridazin-3-yl]phenyl]-4-methylpyrrolidin-2-one]: the IC50 is below 20 nM against ROS1 [1]; below 20 nM in experiment [3] (HCC78, 72 h); 1 to 10 nM at ROS1 [2].
Molecule `CN(Cc1cncc(F)c1)c1ccc2ncc(-c3ccc(N4CC(C)(N)CC4=O)cc3)n2n1` (single isomer, unassigned) [Example 125, 4-Amino-1-[4-[6-[(5-fluoro-3-pyridyl)methyl-methylamino]imidazo[1,2-b]pyridazin-3-yl]phenyl]-4-methylpyrrolidin-2-one] came in with an IC50 on ROS1 [1] of 20 to 100 nM.
In the case of `C[C@@H](Nc1ccc2ncc(-c3ccc(OC[C@@H]4CC(F)CN4)cc3)n2n1)c1cccc(F)c1` (stereo in doubt) [Example 33, N-[(1R)-1-(3-Fluorophenyl)ethyl]-3-[4-[[(2S,4S)-4-fluoropyrrolidin-2-yl]methoxy]phenyl]imidazo[1,2-b]pyridazin-6-amine], the IC50 at ROS1 [1] is below 20 nM; in experiment [3] (HCC78, 72 h), 20 to 100 nM; on ROS1 [2], below 1 nM.
For `c1ccc(CNc2ccc3ncc(-c4ccc(OC[C@@H]5CCCN5)cc4)n3n2)cc1` [Example 1, N-Benzyl-3-[4-[[(2S)-pyrrolidin-2-yl]methoxy]phenyl]imidazo[1,2-b]pyridazin-6-amine] the same measures were 20 to 100 nM, 20 to 100 nM and 1 to 10 nM.
The like results for `c1ccc(CNc2ccc3ncc(-c4cccc(OC[C@@H]5CCCN5)c4)n3n2)cc1` [Example 2, N-Benzyl-3-[3-[[(2S)-pyrrolidin-2-yl]methoxy]phenyl]imidazo[1,2-b]pyridazin-6-amine] were, in that order, 20 to 100 nM, 100 to 600 nM and 1 to 10 nM.
Regarding `c1ccc(CNc2ccc3ncc(-c4ccc(O[C@@H]5CCNC5)cc4)n3n2)cc1` [Example 3, N-Benzyl-3-[4-[(3R)-pyrrolidin-3-yl]oxyphenyl]imidazo[1,2-b]pyridazin-6-amine], the IC50 on ROS1 [1] is 20 to 100 nM; in experiment [3] (HCC78, 72 h), 20 to 100 nM; on ROS1 [2] it was 1 to 10 nM.
As to `c1ccc(CNc2ccc3ncc(-c4cccc(O[C@@H]5CCNC5)c4)n3n2)cc1` [Example 4, N-Benzyl-3-[3-[(3R)-pyrrolidin-3-yl]oxyphenyl]imidazo[1,2-b]pyridazin-6-amine], the IC50 against ROS1 [1] was 100 to 150 nM; in experiment [3] (HCC78, 72 h), 100 to 600 nM; on ROS1 [2], 1 to 10 nM.
The like results for `c1ccc(CNc2ccc3ncc(-c4ccc(OC[C@@H]5CCNC5)cc4)n3n2)cc1` [Example 5, N-Benzyl-3-[4-[[(3R)-pyrrolidin-3-yl]methoxy]phenyl]imidazo[1,2-b]pyridazin-6-amine] were, in that order, 20 to 100 nM, 20 to 100 nM and 1 to 10 nM.
With `c1ccc(CNc2ccc3ncc(-c4ccc(OCC[C@@H]5CCCN5)cc4)n3n2)cc1` [Example 6, N-Benzyl-3-[4-[2-[(2S)-pyrrolidin-2-yl]ethoxy]phenyl]imidazo[1,2-b]pyridazin-6-amine], the IC50 lay in the range of 20 to 100 nM at ROS1 [1]; 20 to 100 nM in experiment [3] (HCC78, 72 h); 1 to 10 nM on ROS1 [2].
`OCCN1CCC[C@H]1COc1cccc(-c2cnc3ccc(NCc4ccccc4)nn23)c1` [Example 7, 2-[(2S)-2-[[3-[6-(Benzylamino)imidazo[1,2-b]pyridazin-3-yl]phenoxy]methyl]pyrrolidin-1-yl]ethanol]: the IC50 against ROS1 [1] lay within 100 to 150 nM; in experiment [3] (HCC78, 72 h) it was 20 to 100 nM; on ROS1 [2], 1 to 10 nM.
In the case of `CN1CCC[C@H]1COc1cccc(-c2cnc3ccc(NCc4ccccc4)nn23)c1` [Example 8, N-Benzyl-3-[3-[[(2S)-1-methylpyrrolidin-2-yl]methoxy]phenyl]imidazo[1,2-b]pyridazin-6-amine], the IC50 against ROS1 [1] was in the range of 20 to 100 nM; in experiment [3] (HCC78, 72 h), 20 to 100 nM; at ROS1 [2] it was 1 to 10 nM.
As for `CN(Cc1cccc(F)c1)c1ccc2ncc(-c3ccc(OC[C@@H]4CCCN4)cc3)n2n1` [Example 10, N-[(3-Fluorophenyl)methyl]-N-methyl-3-[4-[[(2S)-pyrrolidin-2-yl]methoxy]phenyl]imidazo[1,2-b]pyridazin-6-amine], the IC50 at ROS1 [1] is 20 to 100 nM; in experiment [3] (HCC78, 72 h) it was 100 to 600 nM; on ROS1 [2], 1 to 10 nM.
For `Fc1cccc(COc2ccc3ncc(-c4ccc(OC[C@H]5CCCN5)cc4)n3n2)c1` [Example 11, 6-[(3-Fluorophenyl)methoxy]-3-[4-[[(2R)-pyrrolidin-2-yl]methoxy]phenyl]imidazo[1,2-b]pyridazine], the IC50 lay in the range of 20 to 100 nM at ROS1 [1]; 100 to 600 nM in experiment [3] (HCC78, 72 h); 1 to 10 nM on ROS1 [2].
In the case of `C[C@@H](Oc1ccc2ncc(-c3ccc(OC[C@@H]4CCCN4)cc3)n2n1)c1cccc(F)c1` [Example 16, 6-[(1R)-1-(3-Fluorophenyl)ethoxy]-3-[4-[[(2S)-pyrrolidin-2-yl]methoxy]phenyl]imidazo[1,2-b]pyridazine], the IC50 in experiment [3] (HCC78, 72 h) is 20 to 100 nM; on ROS1 [2] it was below 1 nM.
`CC(N)COc1ccc(-c2cnc3ccc(N[C@H](C)c4cccc(F)c4)nn23)cc1` (stereo partly drawn) [Example 35, 3-[4-(2-Aminopropoxy)phenyl]-N-[(1R)-1-(3-fluorophenyl)ethyl]imidazo[1,2-b]pyridazin-6-amine]: the IC50 in experiment [3] (HCC78, 72 h) is below 20 nM.
`CN(Cc1cccc(Cl)c1)c1ccc2ncc(-c3ccc(N4CC(N)CC4=O)cc3)n2n1` (stereo not shown) [Example 96, 4-Amino-1-[4-[6-[(3-chlorophenyl)methyl-methylamino]imidazo[1,2-b]pyridazin-3-yl]phenyl]pyrrolidin-2-one]: the half-inhibitory concentration (IC50) in experiment [3] (HCC78) lay in the range of 100 to 600 nM.
With `C[C@@H](Oc1ccc2ncc(-c3ccc(N4C[C@@H](N)CC4=O)cc3)n2n1)c1cccc(F)c1` [Example 133, (4S)-4-Amino-1-[4-[6-[(1R)-1-(3-fluorophenyl)ethoxy]imidazo[1,2-b]pyridazin-3-yl]phenyl]pyrrolidin-2-one hydrochloride], on ROS1 [1], the IC50 is below 20 nM.
As to `CC(Oc1ccc2ncc(-c3ccc(N4C[C@@H](N)CC4=O)cc3)n2n1)c1cc(F)cnc1F` (stereo partly drawn) [Example 134, (4S)-4-Amino-1-[4-[6-[(1-(2,5-difluoro-3-pyridyl)ethoxy]imidazo[1,2-b]pyridazin-3-yl]phenyl]pyrrolidin-2-one hydrochloride], the IC50 on ROS1 [2] was 1 to 10 nM.
